# Columns and labels:
# [1] = Selectivity index, ratio of IC50 for rat L6 cells to IC50 for Leishmania donovani in mouse macrophages; format: functional
# [2] = system: Leishmania donovani; test: Antileishmanial activity against Leishmania donovani in mouse macrophages; format: functional, organism-based
# [3] = system: Trypanosoma brucei rhodesiense; test: Antiparasitic activity against Trypanosoma brucei rhodesiense by Alamar blue assay; format: functional, organism-based
# [4] = Selectivity index, ratio of IC50 for rat L6 cells to IC50 for Trypanosoma cruzi; format: functional
# [5] = system: Trypanosoma cruzi; test: Antiparasitic activity against Trypanosoma cruzi; format: functional, organism-based
# [6] = system: Plasmodium falciparum; test: Antiparasitic activity against Plasmodium falciparum; format: functional, organism-based
# [7] = system: Leishmania donovani; test: Antileishmanial activity against Leishmania donovani axenic amastigotes; format: functional, organism-based
# [8] = system: L6; test: Cytotoxicity against rat L6 cells by Alamar blue assay; format: cell-based
SMILES,Ratio IC50 [1],IC50 [2] [nM],IC50 [3] [nM],Ratio IC50 [4],IC50 [5] [nM],IC50 [6] [nM],IC50 [7] [nM],IC50 [8] [µM]
C=CC(C#CC#CC(O)CCCCCCCCC)OC(C)=O (centres undefined),37,320,460,18,650,1400,130,12
C=CC(C#CC#CC(O)CCCCCCCCCCOC(C)=O)OC(C)=O (centres undefined),26,2300,1100,150,400,2200,140,58
CCCCCCCCCC(O)C#CC#CC(CC)OC(C)=O (centres undefined),<5.5,> 10000,18000,2.1,26000,19000,7800,54
C[C@@H]1CC[C@H]2[C@@H](C)C(=O)O[C@@H]3O[C@@]4(C)CC[C@@H]1[C@]32OO4 [ARTEMISININ],,,,,,4.3,,
O=C(Cn1ccnc1[N+](=O)[O-])NCc1ccccc1 [BENZNIDAZOLE],,,,,2400,,,
Nc1nc(N)nc(Nc2ccc([As]3SCC(CO)S3)cc2)n1 (centres undefined) [MELARSOPROL],,,5.8,,,,,
CCCCCCCCCCCCCCCCOP(=O)([O-])OCC[N+](C)(C)C [MILTEFOSINE],,710,,,,,,
